Patent US20260207623A1, “USE OF ESTETROL IN HEPATICALLY IMPAIRED PATIENTS” (ESTETRA SRL, priority 2022, published 2026)

System: post-menopausal women
Experiment: Example 3: menopause-specific Quality of Life (MENQOL) questionnaire
Type: in vivo, human

## C[C@]12CC[C@@H]3c4ccc(O)cc4CC[C@H]3[C@@H]1[C@@H](O)[C@@H](O)[C@@H]2O.O [E4 monoh.]
15 mg
  MENQOL Anxious or Nervous, Estimate vs Placebo: −0.6100
  MENQOL Being Impatient with Others, Estimate vs Placebo: −0.4911
  MENQOL Difficulty sleeping, Estimate vs Placebo: −0.7011
  MENQOL Dissatisfied Personal Life, Estimate vs Placebo: −0.8163
  MENQOL Physical Domain, Aching in muscles, Estimate vs Placebo: −0.1858
  MENQOL Psychosocial Domain Score, Estimate vs Placebo: −0.5211
  Total MENQOL Score, Estimate vs Placebo: −0.7068
20 mg
  MENQOL Anxious or Nervous, Estimate vs Placebo: −0.8197
  MENQOL Being Impatient with Others, Estimate vs Placebo: −0.5656
  MENQOL Difficulty sleeping, Estimate vs Placebo: −0.7258
  MENQOL Dissatisfied Personal Life, Estimate vs Placebo: −1.2719
  MENQOL Physical Domain, Aching in muscles, Estimate vs Placebo: −0.5576
  MENQOL Psychosocial Domain Score, Estimate vs Placebo: −0.6056
  Total MENQOL Score, Estimate vs Placebo: −0.7155
